Legend:
Assay in all cases: relative viability vs DMSO control (72 h) (fraction); higher = more viable cells
SW872 = test system: SW872
Summary of the method: (§1)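 Sarcoma cell lines in 384-well plates, seeded to reach 80–90% confluence, were given compound after 24 h and kept 72 h at 37 °C, 5% CO2, with 0.1% DMSO vehicle and a 5 µM positive control. Relative viability came from ATPLite as percent growth, averaged over up to triplicate wells. On the rescaled values, 1 equals full and 0 equals none.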

VA-ES-BJ = test system: VA-ES-BJ
Summary of the method: as §1

SW684 = test system: SW684
Summary of the method: as §1

KHOS-NP = test system: KHOS-NP
Summary of the method: as §1

RD = test system: RD
Summary of the method: as §1

RD-ES = test system: RD-ES
Summary of the method: as §1

MES-SA = test system: MES-SA
Summary of the method: as §1

G401 = test system: G401
Summary of the method: as §1

HT1080 = test system: HT1080
Summary of the method: as §1

SW1353 = test system: SW1353
Summary of the method: as §1

SK-ES-1 = test system: SK-ES-1
Summary of the method: as §1

SK-LMS-1 = test system: SK-LMS-1
Summary of the method: as §1

N#CCNC(=O)c1ccc(-c2ccnc(Nc3ccc(N4CCOCC4)cc3)n2)cc1 [Momelotinib]
Conditions | relative viability
G401, 0.00017 µM | 1.01
G401, 0.00051 µM | 1.011
G401, 0.00152 µM | 1.05
G401, 0.00457 µM | 1.06
G401, 0.01372 µM | 1.01
G401, 0.04115 µM | 0.964
G401, 0.1235 µM | 0.975
G401, 0.3704 µM | 0.898
G401, 1.111 µM | 0.779
G401, 3.333 µM | 0.683
G401, 10 µM | 0.54
HT1080, 0.00017 µM | 1.03
HT1080, 0.00051 µM | 1.1
HT1080, 0.00152 µM | 1.069
HT1080, 0.00457 µM | 1.06
HT1080, 0.01372 µM | 1.08
HT1080, 0.04115 µM | 1.09
HT1080, 0.1235 µM | 1.12
HT1080, 0.3704 µM | 1.17
HT1080, 1.111 µM | 1.18
HT1080, 3.333 µM | 1.25
HT1080, 10 µM | 1.21
KHOS-NP, 0.00017 µM | 1.09
KHOS-NP, 0.00051 µM | 1.099
KHOS-NP, 0.00152 µM | 1.101
KHOS-NP, 0.00457 µM | 1.09
KHOS-NP, 0.01372 µM | 1.115
KHOS-NP, 0.04115 µM | 1.11
KHOS-NP, 0.1235 µM | 1.101
KHOS-NP, 0.3704 µM | 1.08
KHOS-NP, 1.111 µM | 1.01
KHOS-NP, 3.333 µM | 1.05
KHOS-NP, 10 µM | 0.983
MES-SA, 0.00017 µM | 0.942
MES-SA, 0.00051 µM | 0.971
MES-SA, 0.00152 µM | 0.9306
MES-SA, 0.00457 µM | 0.952
MES-SA, 0.01372 µM | 0.934
MES-SA, 0.04115 µM | 0.881
MES-SA, 0.1235 µM | 0.84
MES-SA, 0.3704 µM | 0.786
MES-SA, 1.111 µM | 0.685
MES-SA, 3.333 µM | 0.616
MES-SA, 10 µM | 0.378
RD, 0.00017 µM | 0.971
RD, 0.00051 µM | 0.998
RD, 0.00152 µM | 0.987
RD, 0.00457 µM | 1.03
RD, 0.01372 µM | 0.995
RD, 0.04115 µM | 1.02
RD, 0.1235 µM | 1.041
RD, 0.3704 µM | 1.04
RD, 1.111 µM | 1.02
RD, 3.333 µM | 0.994
RD, 10 µM | 0.905
RD-ES, 0.00017 µM | 0.9849
RD-ES, 0.00051 µM | 0.981
RD-ES, 0.00152 µM | 0.9765
RD-ES, 0.00457 µM | 0.965
RD-ES, 0.01372 µM | 0.976
RD-ES, 0.04115 µM | 0.954
RD-ES, 0.1235 µM | 0.955
RD-ES, 0.3704 µM | 0.896
RD-ES, 1.111 µM | 0.818
RD-ES, 3.333 µM | 0.84
RD-ES, 10 µM | 0.797
SK-ES-1, 0.00017 µM | 1.06
SK-ES-1, 0.00051 µM | 1.05
SK-ES-1, 0.00152 µM | 1.01
SK-ES-1, 0.00457 µM | 1.01
SK-ES-1, 0.01372 µM | 0.978
SK-ES-1, 0.04115 µM | 0.953
SK-ES-1, 0.1235 µM | 0.914
SK-ES-1, 0.3704 µM | 0.781
SK-ES-1, 1.111 µM | 0.575
SK-ES-1, 3.333 µM | 0.516
SK-ES-1, 10 µM | 0.332
SK-LMS-1, 0.00017 µM | 1.13
SK-LMS-1, 0.00051 µM | 1.13
SK-LMS-1, 0.00152 µM | 1.11
SK-LMS-1, 0.00457 µM | 1.1
SK-LMS-1, 0.01372 µM | 1.13
SK-LMS-1, 0.04115 µM | 1.06
SK-LMS-1, 0.1235 µM | 1.08
SK-LMS-1, 0.3704 µM | 1.05
SK-LMS-1, 1.111 µM | 0.946
SK-LMS-1, 3.333 µM | 0.924
SK-LMS-1, 10 µM | 0.886
SW684, 0.00017 µM | 1.12
SW684, 0.00051 µM | 1.15
SW684, 0.00152 µM | 1.09
SW684, 0.00457 µM | 1.13
SW684, 0.01372 µM | 1.12
SW684, 0.04115 µM | 1.13
SW684, 0.1235 µM | 1.1
SW684, 0.3704 µM | 1.02
SW684, 1.111 µM | 0.795
SW684, 3.333 µM | 0.82
SW684, 10 µM | 0.646
SW872, 0.00017 µM | 1.07
SW872, 0.00051 µM | 1.06
SW872, 0.00152 µM | 1.07
SW872, 0.00457 µM | 1.025
SW872, 0.01372 µM | 1.03
SW872, 0.04115 µM | 1.06
SW872, 0.1235 µM | 0.973
SW872, 0.3704 µM | 0.972
SW872, 1.111 µM | 0.765
SW872, 3.333 µM | 0.733
SW872, 10 µM | 0.654
SW1353, 0.00017 µM | 1.1
SW1353, 0.00051 µM | 1.05
SW1353, 0.00152 µM | 1.07
SW1353, 0.00457 µM | 1.07
SW1353, 0.01372 µM | 1.06
SW1353, 0.04115 µM | 1.04
SW1353, 0.1235 µM | 1.03
SW1353, 0.3704 µM | 0.963
SW1353, 1.111 µM | 0.7816
SW1353, 3.333 µM | 0.739
SW1353, 10 µM | 0.511
VA-ES-BJ, 0.00017 µM | 1.07
VA-ES-BJ, 0.00051 µM | 1.07
VA-ES-BJ, 0.00152 µM | 1.08
VA-ES-BJ, 0.00457 µM | 1.066
VA-ES-BJ, 0.01372 µM | 1.09
VA-ES-BJ, 0.04115 µM | 1.07
VA-ES-BJ, 0.1235 µM | 1.04
VA-ES-BJ, 0.3704 µM | 1.03
VA-ES-BJ, 1.111 µM | 0.97
VA-ES-BJ, 3.333 µM | 0.987
VA-ES-BJ, 10 µM | 0.891

From the supplement of paper PMC10883282
